Results taken from patent US12440493B2, “Combination therapy for treating cancer comprising substituted piperazines” (Eli Lilly and Company, priority 2020, dated 2025).
“And” between values parts separate entries of the source, which are not always exact repeats. Equal values may be shown once.

Experiments:
[1] = system: IDH1(R132H) primary human AML cells; experiment: AML cell differentiation in blood (flow cytometry, % hCD33+hCD11b+ of hCD45+ cells), human AML PDx models in NSG mice; type: in vivo; conditions: for AML cell differentiation (% hCD33 + hCD11b+ (of hCD45+ cells)): QD, PO
Method: Compounds and Formulation. For in vivo studies, each test article is prepared at an appropriate concentration with vehicle. […] Compound A is prepared fresh at the appropriate concentrations with vehicle every 7 days and stored at 4° C. between doses. […] Cytarabine is prepared fresh weekly by dilution with sterile saline from stock solution of Cytarabine (injection 20 mg/mL, (Pfizer injectables')). Azacitidine (Sigma, Lot #MKBR7212) is formulated in sterile water and is prepared fresh daily immediately before dosing. In vivo human AML PDx models. […] Two models are used in the studies: […] As needed, splenocytes from tumor-bearing mice are used to propagate and expand the models, as described. Each test article is prepared as described above at an appropriate concentration with vehicle to give animals the doses tested in this study at a dosing volume of 10 μL/gram body weight. Mice receiving Compound A (PO, QD) are treated at the indicated doses for the duration of the study. The combination agents are dosed as follows: […] Treated mice are assessed in comparison to vehicle treated and naïve (non-tumor bearing) control mice. Body weight is recorded twice per week. […] AML PDx model propagation. […] Spleens are processed and splenocytes isolated as described below. Two hundred μL per subject of the splenocyte prep is injected IV (intravenous, tail vein) into recipient NSG mice. […] Once engraftment is confirmed, the mice are monitored biweekly until ready to be put on study. […] Submandibular blood is collected. Spleen/Splenocyte Processing and Prep. After excision, a spleen is weighed, and […] is placed in a standard sterile 15 mL polypropylene conical tube containing PBS, and placed on ice. […] The spleen is placed in ice cold sterile PBS in a 15 mL collection tube. The spleen is removed from the collection tube and placed in a 100 micron 50 mL conical tube cell strainer (BD Falcon #352360). The spleen is processed by gentle rubbing of the spleen tissue against the surface of the cell strainer with the end of a 5 mL syringe plunger in a circular motion. The surface of the strainer is rinsed with 10 mL room temperature sterile DPBS (HyClone SH30028) 3 times during the process. […] The cell pellet is collected by centrifugation (300×g) and washed three times with 30 mL sterile DPBS. The cells are counted and resuspended in DPBS at the desired implant concentration. Bone Marrow Collection. […] Flow cytometry analysis of human white cells. Submandibular blood samples from in vivo studies are collected. Fluor-conjugated antibody stains are added according to the manufacturer's instructions (anti-human CD33-PE (clone WM53, BD Cat #555450), anti-human CD14-APC (clone MφpP9, BD Cat #340436), anti-human CD15-V450 (clone HI98, BD Cat #561584), anti-human CD117-BV421 (clone YB5.B8, BD Cat #562434), anti-human […]7 (clone ICRF44, BD Cat #557754), anti-human […]7 (clone HI30, BD Cat #557748), and anti-human CD3-FITC (clone SK7, BD Cat #340542)). The samples are incubated for 30 minutes at room temperature, protected from light. After the incubation, 1.5 mL 1×BD Lyse/Fix (37° C., (BD #558049)) is added to each sample and incubated for 12 minutes at room temperature. The tubes are centrifuged at 300×g for 7 minutes. BD Lyse/Fix solution is aspirated and the cell pellet washed with stain/wash buffer 3 times (1 wash step consisted of: pellet resuspended in 3 mL stain/wash buffer, centrifuged at 300×g, aspirated wash). Fixed cells are then resuspended in 300 to 400 μL stain/wash buffer. Samples are analyzed on a Becton Dickinson FACSVerse Flow cytometer (Cat #651155 Serial #Z6511550447) using standard flow cytometry principles and techniques. Samples are analyzed on the same day as they are stained and fixed. Population gating and data analysis of percent population are performed in the FACSuite software on the FACSVerse cytometer. Percent population values from the data analysis are plotted in Graphpad Prism or in JMP13. […]

2-HG production = experiment: Plasma 2-HG inhibition (LC-MS metabolite analysis in plasma of AML PDx model); type: in vivo, human; conditions: for % plasma 2-HG (treatment group value): vehicle 100%
[2] = 3.3 mg/kg Compound A, QD, PO, Table 1D, each line one animal
[3] = 3.3 mg/kg Compound A, QD, PO, Table 2D, each line one animal
[4] = plasma, B: 1 mg/kg Compound A, QD, PO, one line per animal
[5] = plasma, C: 10 mg/kg Compound A, one line per animal

Q: With `C=CC(=O)N1CCN([C@@H](CC2CC2)c2ccc([C@H](C)Nc3ncc4c(n3)N(CC)C(=O)OC4)cc2)CC1` [Compound A, 7-[[(1S)-1-[4-[(1S)-2-cyclopropyl-1-(4-prop-2-enoylpiperazin-1-yl)ethyl]phenyl]ethyl]amino]-1-ethyl-4H-pyrimido[4,5-d][1,3]oxazin-2-one] as the compound, how does the “AML cell differentiation (% hCD33 + hCD11b+ (of hCD45+ cells))” value ([1]; B: 1 mg/kg Compound A, treatment day −8 (before treatment), one animal) read?
A: 19.01% and 16.75%

Q: What about the “AML cell differentiation (% hCD33 + hCD11b+ (of hCD45+ cells))” value ([1]; Treatment day 2, 3.3 mg/kg Compound A, Table 2B, each value one animal, 3.3 mg/kg) of the same compound?
A: 14.12% and 16.05% and 13.27% and 10.34% and 11.59% and 13.32% and 14.01%

Q: What about the “AML cell differentiation (% hCD33 + hCD11b+ (of hCD45+ cells))” value ([1]; Treatment day 15, 3.3 mg/kg Compound A, Table 2B, each value one animal, 3.3 mg/kg) of the same compound?
A: 33.42% and 27.78% and 36.01% and 28.02% and 28.21% and 29.24% and 33.82%

Q: And the “AML cell differentiation (% hCD33 + hCD11b+ (of hCD45+ cells))” value ([1]; Treatment day 18, 3.3 mg/kg Compound A, each value one animal, 3.3 mg/kg)?
A: 23.96% and 27.78% and 22.27% and 22.38% and 22.41% and 29.38% and 24.62%

Q: And the “AML cell differentiation (% hCD33 + hCD11b+ (of hCD45+ cells))” value ([1]; Treatment day 28, 3.3 mg/kg Compound A, Table 2B, each value one animal, 3.3 mg/kg)?
A: 35.79% and 36.46% and 33.59% and 39.91% and 37.16% and 40.47%

Q: And the “AML cell differentiation (% hCD33 + hCD11b+ (of hCD45+ cells))” value ([1]; Treatment day 34, 3.3 mg/kg Compound A, each value one animal, 3.3 mg/kg)?
A: 30.68% and 27.59% and 29.94% and 25.81% and 29.79% and 34.39% and 29.26%

Q: And the “AML cell differentiation (% hCD33 + hCD11b+ (of hCD45+ cells))” value ([1]; Treatment day 43, 3.3 mg/kg Compound A, Table 2B, each value one animal, 3.3 mg/kg)?
A: 37.51% and 35.22% and 33.33% and 36.61% and 41.32% and 33.68% and 39.34%

Q: What about the “AML cell differentiation (% hCD33 + hCD11b+ (of hCD45+ cells))” value ([1]; Treatment day 47, 3.3 mg/kg Compound A, each value one animal, 3.3 mg/kg) of the same compound?
A: 37.61% and 35.31% and 38.58% and 39.61% and 31.81% and 41.02% and 35.79%

Q: What about the “AML cell differentiation (% hCD33 + hCD11b+ (of hCD45+ cells))” value ([1]; Treatment day 58, 3.3 mg/kg Compound A, Table 2B, each value one animal, 3.3 mg/kg) of the same compound?
A: 42.9% and 44.03% and 33.47% and 48.08% and 47.13% and 40.2% and 26.62%

Q: And the “AML cell differentiation (% hCD33 + hCD11b+ (of hCD45+ cells))” value ([1]; Treatment day 61, 3.3 mg/kg Compound A, each value one animal, 3.3 mg/kg)?
A: 37.61% and 40.23% and 40.06% and 33.82% and 32.55% and 43.95% and 44%

Q: What about the “AML cell differentiation (% hCD33 + hCD11b+ (of hCD45+ cells))” value ([1]; Treatment day 75, 3.3 mg/kg Compound A, each value one animal, 3.3 mg/kg) of the same compound?
A: 33.98% and 35.9% and 31.38% and 37.53% and 34.66% and 51.92%

Q: And the “AML cell differentiation (% hCD33 + hCD11b+ (of hCD45+ cells))” value ([1]; Treatment day 77, 3.3 mg/kg Compound A, Table 2B, each value one animal, 3.3 mg/kg)?
A: 56.29% and 46.83% and 42.98% and 48.3% and 51.69% and 48.56%

Q: What about the “AML cell differentiation (% hCD33 + hCD11b+ (of hCD45+ cells))” value ([1]; Treatment day 89, 3.3 mg/kg Compound A, each value one animal, 3.3 mg/kg) of the same compound?
A: 21.32% and 43.96% and 40.34% and 28.57% and 37.17% and 45.68%

Q: And the “AML cell differentiation (% hCD33 + hCD11b+ (of hCD45+ cells))” value ([1]; Treatment day 98, 3.3 mg/kg Compound A, Table 2B, each value one animal, 3.3 mg/kg)?
A: 44.09% and 47.66% and 33.67% and 36.45% and 33.6%

Q: And the “AML cell differentiation (% hCD33 + hCD11b+ (of hCD45+ cells))” value ([1]; Treatment day −3, 3.3 mg/kg Compound A, each value one animal, 3.3 mg/kg)?
A: 11.93% and 12% and 13.59% and 13.22% and 11.07% and 13.07%

Q: What about the “AML cell differentiation (% hCD33 + hCD11b+ (of hCD45+ cells))” value ([1]; Treatment day −19, 3.3 mg/kg Compound A, Table 2B, each value one animal, 3.3 mg/kg) of the same compound?
A: 1.45% and 2.19% and 0.38% and 2.21% and 0.64% and 0.34% and 0.68%

Q: What about the “% AML cell differentiation (treatment group value)” value (from here on “% AML cell differentiation”) ([1]; day 43, group B: Compound A (3.3 mg/kg), azacitidine study, vehicle 15%) of the same compound?
A: 37%

Q: What about the “% AML cell differentiation” value ([1]; day 47, group B: Compound A (3.3 mg/kg), cytarabine study, vehicle 10%) of the same compound?
A: 37%

Q: And the “% AML cell differentiation” value ([1]; day 50, group B: 1 mg Compound A, vehicle 28%)?
A: 43%

Q: And the “% AML cell differentiation” value ([1]; day 50, group C: 10 mg Compound A, vehicle 28%)?
A: 79%

Q: And the “% Inhibition of 2-HG (plasma)” value (2-HG production; [2])?
A: 92.715% and 97.316% and 100.207% and 99.855% and 92.797% and 94.779%

Q: What about the “Naive Subtracted 2-HG (plasma)” value (2-HG production; [2]) of the same compound?
A: 0.134 µM and 0.809 µM and 0.298 µM and -0.023 µM and 0.016 µM and 0.799 µM and 0.579 µM

Q: What about the “Plasma 2-HG” value (2-HG production; [2]) of the same compound?
A: 1.042 µM and 1.717 µM and 1.206 µM and 0.885 µM and 0.924 µM and 1.708 µM and 1.488 µM

Q: And the “% Inhibition of 2-HG (plasma)” value (2-HG production; [3])?
A: 118.011% and 98.032% and 112.937% and 127.909% and 122.77% and 118.689% and 111.758%

Q: What about the “Naive Subtracted 2-HG (plasma)” value (2-HG production; [3]) of the same compound?
A: -1.236 µM and 0.135 µM and -0.888 µM and -1.915 µM and -1.562 µM and -1.282 µM and -0.807 µM

Q: And the “Plasma 2-HG” value (2-HG production; [3])?
A: 1.701 µM and 3.072 µM and 2.049 µM and 1.022 µM and 1.374 µM and 1.654 µM and 2.13 µM

Q: What about the inhibition at 10 mg/kg (2-HG production; NSG mice, plasma, C: 10 mg/kg Compound A, one line per animal) of the same compound?
A: 84%

Q: And the inhibition at 3.3 mg/kg (2-HG production; NSG mice, po, 3.3 mg/kg Compound A, QD, Table 1D, each line one animal)?
A: 98.8%

Q: And the inhibition at 1 mg/kg (2-HG production; NSG mice, po, plasma, B: 1 mg/kg Compound A, QD, PO, one line per animal)?
A: 54.7%

Q: And the “% plasma 2-HG (treatment group value)” value (2-HG production; group B: 1 mg Compound A)?
A: 38%

Q: What about the “% plasma 2-HG (treatment group value)” value (2-HG production; group B: Compound A (3.3 mg/kg), azacitidine study) of the same compound?
A: −15%

Q: What about the “% plasma 2-HG (treatment group value)” value (2-HG production; group B: Compound A (3.3 mg/kg), cytarabine study) of the same compound?
A: 3.4%

Q: And the “% plasma 2-HG (treatment group value)” value (2-HG production; group C: 10 mg Compound A)?
A: 9.2%

Q: What about the 2-HG (2-HG production; [4]) of the same compound?
A: 9.264 µM and 6.489 µM and 7.318 µM and 8.683 µM and 8.938 µM

Q: And the “% Inhibition of 2-HG” value (2-HG production; [4])?
A: 73.015% and 67.532% and 58.504% and 56.818%

Q: And the “Naive Subtracted 2-HG” value (2-HG production; [4])?
A: 6.855 µM and 4.08 µM and 4.909 µM and 6.274 µM and 6.529 µM

Q: What about the 2-HG (2-HG production; [5]) of the same compound?
A: 4.821 µM and 4.395 µM and 4.286 µM and 3.033 µM and 2.863 µM

Q: And the “% Inhibition of 2-HG” value (2-HG production; [5])?
A: 86.867% and 87.584% and 95.874% and 97%

Q: And the “Naive Subtracted 2-HG” value (2-HG production; [5])?
A: 2.412 µM and 1.986 µM and 1.877 µM and 0.624 µM and 0.454 µM
